Laboratory results taken from patent US20130072720A1, “PHARMACEUTICAL COMPOSITION FOR TREATMENT OF OSTEOARTHRITIS” (NATIONAL DEFENSE MEDICAL CENTER, priority 2011, published 2013).

Columns and labels:
[1] = system: inducible nitric oxide synthase (iNOS); assay: TNF-α-induced iNOS expression in chondrocytes; assay type: cell-based, porcine; settings: chondrocytes stimulated by TNF-α (5 ng/ml), after 48 hours, HS—Cf in different concentrations
Excerpt: (§1) The following embodiments show suppression effect of HS—Cf on those factors involved in signaling pathways of TNF-α-induced IRF-1 expression and prevention effect of HS—Cf on TNF-mediated collagen loss and proteoglycan loss. All porcine chondrocytes used are obtained from the hind leg joints of pigs.
(§2) NO (nitric oxide) is generated by TNF-α-induced iNOS so that iNOS expression is correlated with NO production. HS—Cf in different concentrations are delivered to chondrocytes stimulated by TNF-α (5 ng/ml).

NO (nitric oxide) = assay: NO production in TNF-α-stimulated chondrocytes; assay type: cell-based, porcine; settings: chondrocytes stimulated by TNF-α (5 ng/ml), after 48 hours, HS—Cf in different concentrations
Excerpt: as §1, §2

[2] = system: matrix metalloproteinase-1 (MMP-1); assay: TNF-α-induced MMP-1 mRNA expression by Q-PCR; assay type: cell-based; settings: porcine chondrocytes, HS—Cf 2 hours, then TNF-α (5 ng/ml) four hours
Experimental: as §1
(§3) TNF-α-induced MMP-1 is one of the factors that damage and destroy cartilage. Mix HS—Cf in different concentrations with porcine chondrocytes and react for 2 hours. Then add TNF-α (5 ng/ml) to stimulate porcine chondrocytes for four hours. Next measure mRNA expression by real-time quantitative-polymerase chain reaction (Q-PCR).

[3] = system: matrix metalloproteinase-3 (MMP-3); assay: TNF-α-induced MMP-3 mRNA expression by Q-PCR; assay type: cell-based; settings: porcine chondrocytes, HS—Cf 2 hours, then TNF-α (5 ng/ml) four hours
Experimental: as §1
as §3, with “MMP-3” for “MMP-1”

[4] = system: matrix metalloproteinase-13 (MMP-13); assay: TNF-α-induced MMP-13 mRNA expression by Q-PCR; assay type: cell-based; settings: porcine chondrocytes, HS—Cf 2 hours, then TNF-α (5 ng/ml) four hours
Experimental: as §1
Mix HS—Cf in different concentrations with porcine chondrocytes and react for 2 hours. Then add TNF-α (5 ng/ml) to stimulate cells for four hours. Next observe mRNA expression by real-time quantitative-polymerase chain reaction (Q-PCR).

[5] = system: ADAMTS-4, also called Aggrecanase-1; assay: TNF-α-induced ADAMTS-4 mRNA expression by Q-PCR; assay type: cell-based; settings: porcine chondrocytes, HS—Cf 2 hours, then TNF-α (5 ng/ml) four hours
Experimental: as §1
TNF-α induced ADAMTS-4 is one of the factors that damage and destroy cartilage. Mix HS—Cf in different concentrations with porcine chondrocytes and react for 2 hours. Then add TNF-α (5 ng/ml) to stimulate cells for four hours. Next measure mRNA expression by Q-PCR.

[6] = system: ADAMTS-5, also called Aggrecanase-2; assay: TNF-α-induced ADAMTS-5 mRNA expression by Q-PCR; assay type: cell-based; settings: porcine chondrocytes, HS—Cf 2 hours, then TNF-α (5 ng/ml) four hours
Experimental: as §1
TNF-α induced ADAMTS-5 is one of the factors that damage and destroy cartilage. Mix HS—Cf in different concentrations with porcine chondrocytes and react for 2 hours. Then add TNF-α (5 ng/ml) to stimulate cells for four hours. Next observe mRNA expression by Q-PCR.

collagen II = assay: Loss prevention of collagen II under TNF-α stimulation, Western blot; assay type: cell-based; settings: porcine chondrocytes, HS—Cf 24 hours, then TNF-α (5 ng/ml) 48 hours
Experimental: as §1
As shown in the figure, after mixing porcine chondrocytes with TNF-α (5 ng/ml), the amount of collagen II at different times is determined by Western Blot. It is confirmed that collagen II is degraded and lost along with the time under TNF-α stimulation. […] Then add TNF-α (5 ng/ml) to stimulate porcine chondrocytes for 48 hours. Next use western blot to measure the amount of protein.

proteoglycan (aggrecan) = assay: Loss prevention of proteoglycan under TNF-α stimulation, Safranin-O staining; assay type: cell-based; settings: porcine chondrocytes, 5/or 10 μM HS—Cf 24 hours, then TNF-α (5 ng/ml) 72 hours
Experimental: as §1
Besides collagen II, loss of proteoglycan (aggrecan) is also affected by HS—Cf. […] Then add TNF-α (5 ng/ml) to stimulate porcine chondrocytes for 72 hours. Next use Safranin-O staining to observe the amount of proteoglycan in cartilaginous tissue.

porcine chondrocytes [7] = assay: MTT cell viability assay; assay type: cell-based; settings: any of the concentrations
Excerpt: (§4) Cytotoxicity of HS—Cf also has been checked. HS—Cf is used as a pharmaceutical composition so that cytotoxicity of HS—Cf has to be carefully considered for determining whether HS—Cf can be used for treatment of osteoarthritis. […] Thus HS—Cf is used in treatment of organisms.

porcine chondrocytes [8] = assay: lactate dehydrogenase (LDH) assay; assay type: cell-based; settings: any of the concentrations
Excerpt: as §4

## O=C(Nc1cccc(C(F)(F)F)c1)c1ccccc1O [HS—Cf, 2-hydroxy-N-[3-(trifluoromethyl)phenyl]benzamide]
[1]
  iNOS expression: significantly decreases iNOS expression at higher concentration
NO (nitric oxide)
  NO production: NO production is also reduced along with the increasing concentration
[2]
  MMP-1 mRNA expression: MMP-1 expression is decreased along with the increasing concentration
[3]
  MMP-3 mRNA expression: decreases MMP-3 expression at higher concentration
[4]
  MMP-13 mRNA expression: MMP-13 expression is decreased along with the increasing concentration
[5]
  ADAMTS-4 mRNA expression: ADAMTS-4 expression is decreased along with the increasing concentration
[6]
  ADAMTS-5 mRNA expression: ADAMTS-5 expression is decreased along with the increasing concentration
Collagen II
  degradation and loss of collagen II: degradation and loss of collagen II is under control
Proteoglycan (aggrecan)
  degradation and loss of proteoglycan: degradation and loss of proteoglycan is under control
Porcine chondrocytes [7]
  cytotoxicity (MTT cell viability assay): no obvious cytotoxic effect
Porcine chondrocytes [8]
  cytotoxicity (LDH assay): no obvious cytotoxic effect
